Test results from the supplement of paper PMC10307832.

Tests used:
Assay in all cases: relative viability (nuclei count vs DMSO), 5 days (fraction); higher = more cells survive
[1] = compound: C#Cc1cccc(Nc2ncnc3cc(OC)c(OCCCCCCC(=O)NO)cc23)c1 [CUDC-101] + C[C@]1(O)C[C@@H](c2nc(-c3ccc4ccc(-c5ccccc5)nc4c3)c3c(N)nccn32)C1 [Linsitinib] (partner 1 µM)
Method in brief: (§1)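 Relative viability was taken as the ratio of nuclei in treated wells to nuclei in vehicle wells. Lung cancer cell lines in 1536-well plates received compounds by pin tool one day after seeding, either one drug alone or a fixed anchor-drug dose plus five library-drug doses (not always all listed) in √10 steps. Nuclei were counted on 4× images after 5 days of treatment, and values are medians of duplicate plates.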

[2] = compound: C1=CC=C2C(=C1)N=C(S2)C(C#N)C3=NC(=NC=C3)NCCC4=CN=CC=C4 + Cc1nc(Nc2ncc(C(=O)Nc3c(C)cccc3Cl)s2)cc(N2CCN(CCO)CC2)n1 [Dasatinib] (partner 0.075 µM)
Method in brief: as §1

[3] = compound: COc1cc2/c(=N/c3ccc(Br)cc3F)nc[nH]c2cc1OCC1CCN(C)CC1 [Vandetanib] + COc1cccc2cc(-c3nc([C@H]4CC[C@H](C(=O)O)CC4)n4ncnc(N)c34)[nH]c12 [OSI-027] (partner 0.5 µM)
Method in brief: as §1

[4] = compound: COc1cc2/c(=N/c3ccc(Br)cc3F)nc[nH]c2cc1OCC1CCN(C)CC1 [Vandetanib] + O=C(c1cc(Cc2n[nH]c(=O)c3ccccc23)ccc1F)N1CCN(C(=O)C2CC2)CC1 [Olaparib] (partner 8 µM)
Method in brief: as §1

Row | Cell Line | relative viability ([1]; first compound 0.01 µM) | relative viability ([1]; first compound 0.03162 µM) | relative viability ([1]; first compound 0.1 µM) | relative viability ([1]; first compound 0.3162 µM) | relative viability ([1]; first compound 1 µM) | relative viability ([2]; first compound 0.005 µM) | relative viability ([2]; first compound 0.01581 µM) | relative viability ([2]; first compound 0.05 µM) | relative viability ([2]; first compound 0.1581 µM) | relative viability ([2]; first compound 0.5 µM) | relative viability ([3]; first compound 0.02 µM) | relative viability ([3]; first compound 0.06325 µM) | relative viability ([3]; first compound 0.2 µM) | relative viability ([3]; first compound 0.6325 µM) | relative viability ([3]; first compound 2 µM) | relative viability ([4]; first compound 0.02 µM) | relative viability ([4]; first compound 0.06325 µM) | relative viability ([4]; first compound 0.2 µM) | relative viability ([4]; first compound 0.6325 µM) | relative viability ([4]; first compound 2 µM)
1 | NCI-H2405 | 1.03 | 0.702 | 0.981 | 1.14 | 0.851 | 0.214 | 0.187 | 0.168 | 0.234 | 0.219 | 0.621 | 0.422 | 0.72 | 0.671 | 0.482 | 0.835 | 0.816 | 0.895 | 0.948 | 0.837
2 | NCI-H3122 | 1.06 | 1.01 | 1.03 | 1.08 | 0.989 | 0.826 | 0.824 | 0.873 | 1.03 | 0.686 | 0.97 | 0.924 | 0.937 | 0.931 | 1.06 | 0.617 | 0.576 | 0.232 | 0.567 | 0.621
3 | PC-3 [JPC-3] | 0.987 | 0.91 | 0.789 | 0.667 | 0.383 | 0.877 | 1.07 | 0.962 | 1.08 | 0.73 | 0.757 | 0.768 | 0.795 | 0.462 | 0.45 | 1.06 | 0.961 | 1.06 | 0.747 | 0.557
4 | PC-14 | 0.986 | 0.782 | 1.01 | 0.683 | 0.137 | 0.174 | 0.228 | 0.211 | 0.32 | 0.249 | 0.931 | 0.576 | 0.458 | 0.145 | 0.109 | 0.25 | 0.248 | 0.26 | 0.217 | 0.117
5 | RERF-LC-KJ | 0.965 | 1.01 | 0.839 | 0.849 | 0.694 | 0.796 | 0.863 | 0.756 | 0.952 | 0.527 | 0.627 | 0.537 | 0.545 | 0.471 | 0.412 | 0.891 | 0.959 | 0.898 | 0.75 | 0.83
6 | SK-LU-1 | 1.17 | 0.942 | 1.08 | 0.868 | 0.773 | 0.174 | 0.184 | 0.189 | 0.188 | 0.199 | 0.332 | 0.199 | 0.37 | 0.348 | 0.301 | 0.496 | 0.313 | 0.54 | 0.437 | 0.597
7 | SK-MES-1 | 1.17 | 1.13 | 1.05 | 1.1 | 0.742 | 0.303 | 0.403 | 0.394 | 0.327 | 0.371 | 0.678 | 0.559 | 0.691 | 0.618 | 0.448 | 0.71 | 0.676 | 0.708 | 0.606 | 0.424
8 | SW 1573 | 0.867 | 0.919 | 0.915 | 0.955 | 0.637 | 0.587 | 0.44 |  | 0.494 | 0.324 | 0.508 | 0.57 | 0.653 | 0.634 | 0.534 | 0.434 | 0.416 | 0.393 | 0.521 | 0.489
